Experimental data as given in ChEMBL document CHEMBL5505975, “Design, synthesis and biological evaluation of CDC20 inhibitors for treatment of triple-negative breast cancer” (Eur J Med Chem, 2024).
Calls of active or inactive are those of the source. The calls are words filed in the database; no cut-off is given here.

Columns and labels:
[1] = test system: MDA-MB-231; assay: Cell cycle arrest in human MDA-MB-231 cells assessed as G1 phase cells at 5 uM incubated for 48 hrs by PI staining based flow cytometric analysis (reference value: 76.7%); type: functional
[2] = test system: MDA-MB-231; assay: Induction of autophagy in human MDA-MB-231 cells assessed as autophagic lysosomes at 10 uM incubated for 48 hrs by transmission electron microscopic analysis; type: functional, cell-based
[3] = Toxicity in female BALB/C mouse implanted with mouse 4T1 cells assessed as effect on body weight at 20 to 50 mg/kg, iv administered every two days for 21 days; type: organism-based; details: in vivo, 504 h, dose 20-50 mg/kg, time 21 day
[4] = test system: 4T1; assay: Antitumor activity against mouse 4T1 cells implanted in female BALB/C mouse assessed as inhibition of tumor growth at 20 to 50 mg/kg, iv administered every two days for 21 days; type: functional, organism-based; details: dose 20-50 mg/kg, time 21.0 day
[5] = Toxicity in female BALB/C mouse implanted with mouse 4T1 cells assessed as spleen damage at 20 to 50 mg/kg, iv administered every two days for 21 days by H and E staining based analysis; type: organism-based; details: in vivo, 504 h, dose 20-50 mg/kg, time 21 day
[6] = Toxicity in female BALB/C mouse implanted with mouse 4T1 cells assessed as change in RBC level at 20 to 50 mg/kg, po administered every two days for 21 days by routine blood analysis; type: organism-based; details: in vivo, 504 h, dose 20-50 mg/kg, time 21 day
[7] = Toxicity in female BALB/C mouse implanted with mouse 4T1 cells assessed as lung damage at 20 to 50 mg/kg, po administered every two days for 21 days by H and E staining based analysis; type: organism-based; details: in vivo, 504 h, dose 20-50 mg/kg, time 21 day
[8] = test system: MDA-MB-231; assay: Effect on cell morphology in human MDA-MB-231 cells at 2.5 to 10 uM incubated for 24 hrs by wound healing assay; type: functional, cell-based; details: dose 2.5-10 µM
[9] = test system: MDA-MB-231; assay: Cell cycle arrest in human MDA-MB-231 cells assessed as S phase cells at 20 uM incubated for 48 hrs by PI staining based flow cytometric analysis (reference value: 28.7%); type: functional
[10] = Toxicity in female BALB/C mouse implanted with mouse 4T1 cells assessed as effect on neutrophils at 20 to 50 mg/kg, iv administered every two days for 21 days by routine blood analysis; type: organism-based; details: in vivo, 504 h, dose 20-50 mg/kg, time 21 day
[11] = Toxicity in female BALB/C mouse implanted with mouse 4T1 cells assessed as change in WBC level at 20 to 50 mg/kg, po administered every two days for 21 days by routine blood analysis; type: organism-based; details: in vivo, 504 h, dose 20-50 mg/kg, time 21 day
[12] = test system: 4T1; assay: Antitumor activity against mouse 4T1 cells implanted in female BALB/C mouse assessed as inhibition of tumor growth at 20 to 50 mg/kg, po administered every two days for 21 days; type: functional, organism-based; details: dose 20-50 mg/kg, time 21.0 day
[13] = test system: MDA-MB-231; assay: Induction of apoptosis in human MDA-MB-231 cells assessed as necrotic cells at 2.5 uM incubated for 48 hrs by Annexin V-FITC/PI staining based flow cytometric analysis (reference value: 1.63%); type: functional
[14] = test system: A549; assay: Antiproliferative activity against human A549 cells assessed as reduction in cell viability incubated for 96 hrs by MTT assay; details: A549, 96 h
[15] = test system: MDA-MB-231; assay: Induction of apoptosis in human MDA-MB-231 cells assessed as early apoptotic cells at 5 uM incubated for 48 hrs by Annexin V-FITC/PI staining based flow cytometric analysis (reference value: 2.25 %); type: functional
[16] = Toxicity in female BALB/C mouse implanted with mouse 4T1 cells assessed as effect on lymphocytes at 20 to 50 mg/kg, iv administered every two days for 21 days by routine blood analysis; type: organism-based; details: in vivo, 504 h, dose 20-50 mg/kg, time 21 day
[17] = test system: MDA-MB-231; assay: Induction of apoptosis in human MDA-MB-231 cells assessed as early apoptotic cells at 2.5 uM incubated for 48 hrs by Annexin V-FITC/PI staining based flow cytometric analysis (reference value: 2.25 %); type: functional
[18] = Toxicity in female BALB/C mouse implanted with mouse 4T1 cells assessed as change in serum AST level at 20 to 50 mg/kg, po administered every two days for 21 days; type: organism-based; details: in vivo, 504 h, dose 20-50 mg/kg, time 21 day
[19] = test system: 4T1; assay: Antitumor activity against mouse 4T1 cells implanted in female BALB/C mouse assessed as inhibition of tumor weight at 50 mg/kg, po administered every two days for 21 days relative to control; type: functional, organism-based; details: time 21.0 day
[20] = test system: MDA-MB-231; assay: Cell cycle arrest in human MDA-MB-231 cells assessed as S phase cells at 5 uM incubated for 48 hrs by PI staining based flow cytometric analysis (reference value: 16.0%); type: functional
[21] = test system: MDA-MB-231; assay: Cell cycle arrest in human MDA-MB-231 cells assessed as S phase cells at 20 uM incubated for 72 hrs by PI staining based flow cytometric analysis (reference value: 28.7%); type: functional
[22] = test system: MDA-MB-231; assay: Cell cycle arrest in human MDA-MB-231 cells assessed as S phase cells at 20 uM incubated for 24 hrs by PI staining based flow cytometric analysis (reference value: 28.7%); type: functional
[23] = test system: MDA-MB-231; assay: Induction of apoptosis in human MDA-MB-231 cells assessed as late apoptotic cells at 2.5 uM incubated for 48 hrs by Annexin V-FITC/PI staining based flow cytometric analysis (reference value: 1.06%); type: functional
[24] = Toxicity in female BALB/C mouse implanted with mouse 4T1 cells assessed as change in serum CREA level at 20 to 50 mg/kg, po administered every two days for 21 days; type: organism-based; details: in vivo, 504 h, dose 20-50 mg/kg, time 21 day
[25] = Toxicity in female BALB/C mouse implanted with mouse 4T1 cells assessed as kidney damage at 20 to 50 mg/kg, po administered every two days for 21 days by H and E staining based analysis; type: organism-based; details: in vivo, 504 h, dose 20-50 mg/kg, time 21 day
[26] = test system: MDA-MB-231; assay: Induction of apoptosis in human MDA-MB-231 cells assessed as necrotic cells at 10 uM incubated for 48 hrs by Annexin V-FITC/PI staining based flow cytometric analysis (reference value: 1.63%); type: functional
[27] = Toxicity in female BALB/C mouse implanted with mouse 4T1 cells assessed as change in serum ALT level at 20 to 50 mg/kg, po administered every two days for 21 days; type: organism-based; details: in vivo, 504 h, dose 20-50 mg/kg, time 21 day
[28] = test system: MDA-MB-231; assay: Cell cycle arrest in human MDA-MB-231 cells assessed as G1 phase cells at 20 uM incubated for 48 hrs by PI staining based flow cytometric analysis (reference value: 56.7%); type: functional
[29] = test system: MCF7; assay: Antiproliferative activity against human MCF7 cells assessed as reduction in cell viability incubated for 96 hrs by MTT assay; details: MCF7, 96 h
[30] = test system: MDA-MB-231; assay: Antimigratory activity in human MDA-MB-231 cells assessed as reduction in migration ability incubated for 24 hrs by wound healing assay; type: functional, cell-based; details: dose 2.5-10 µM
[31] = test system: MDA-MB-231; assay: Cell cycle arrest in human MDA-MB-231 cells assessed as G1 phase cells at 10 uM incubated for 48 hrs by PI staining based flow cytometric analysis (reference value: 76.7%); type: functional
[32] = test system: 4T1; assay: Antitumor activity against mouse 4T1 cells implanted in female BALB/C mouse assessed as inhibition of tumor weight at 20 mg/kg, po administered every two days for 21 days relative to control; type: functional, organism-based; details: time 21.0 day
[33] = test system: MDA-MB-231; assay: Induction of apoptosis in human MDA-MB-231 cells assessed as early apoptotic cells at 10 uM incubated for 48 hrs by Annexin V-FITC/PI staining based flow cytometric analysis (reference value: 2.25 %); type: functional
[34] = test system: MDA-MB-468; assay: Antiproliferative activity against human MDA-MB-468 cells assessed as reduction in cell viability incubated for 96 hrs by MTT assay; details: MDA-MB-468, 96 h

Structure (SMILES): CCC(=O)NC(n1cnc2c(Nc3cc(OC)c(OC)c(OC)c3)nc(N)nc21)C(Cl)(Cl)Cl (centres undefined)
- Activity [1]: 62.8%
- Activity [2]: Active
- Activity [3]: Non-Toxic
- Activity [4]: Active
- Activity [5]: Non-Toxic
- Activity [6]: Non-Toxic
- Activity [7]: Non-Toxic
- Activity [8]: inactive
- Activity [9]: 13.3%
- Activity [10]: Non-Toxic
- Activity [11]: Non-Toxic
- Activity [12]: Active
- Activity [13]: 1.57%
- IC50 [14]: 6.47 µM
- Activity [15]: 4.37%
- Activity [16]: Non-Toxic
- Activity [17]: 1.34%
- Activity [18]: Non-Toxic
- Activity [19]: inactive
- Activity [20]: 28.6%
- Activity [21]: 12.5%
- Activity [22]: 27.6%
- Activity [23]: 1.4%
- Activity [24]: Non-Toxic
- Activity [25]: Non-Toxic
- Activity [26]: 1.14%
- Activity [27]: Non-Toxic
- Activity [28]: 41%
- IC50 [29]: 3.27 µM
- Activity [30]: Dose-Dependent Effect
- Activity [31]: 77.5%
- Activity [32]: inactive
- Activity [33]: 4.54%
- IC50 [34]: 7.24 µM
